From patent publication US10195297B2, “Iron garnet nanoparticles for cancer radiotherapy and chemotherapy” (priority 2014, dated 2019) come the findings set out here.

SMILES strings stand for the structures.

In assay [1] the test system is human NSCLC A549 cells. The assay is described as follows: MTS cytotoxicity studies of 166HoIG, 166HoIG-Pt and free Pt drugs (Example 6). The class given is cell-based. The settings on record: 24 h.
Description: Cytotoxicity studies. The studies involving human NSCLC A549 cells were carried out under standard conditions in a humidified, 37° C., 5% CO2 atmosphere incubator. The culture medium used for A549 was Roswell Park Memorial Institute with 10% fetal calf serum (FCS), 100 μg/mL streptomycin, 100 IU/mL penicillin and 2.0 mM L-glutamine (RPMI).
Suspensions of each type of neutron-activated nanoparticle were prepared in RPMI. Two control groups, RPMI alone and RPMI with cells not exposed to ^166Ho nanoparticles, were included in each 96-well plate. At least four replicates were done for each concentration and each control group. The cells were seeded at 5×10^4 cells/mL (100 μL/well) in 96-well plates and allowed to grow for 24 h after which time the RPMI was removed and replaced with 100 μL of RPMI that contained blank ^166HoIG or ^166HoIG-Pt. After an exposure time of 24 h on a microplate shaker in the incubator, the RPMI was removed and replaced with 100 μL of fresh RPMI. […] After 1 h incubation with the MTS solution, the absorbance was read at 490 nm using a Synergy™ H1 hybrid multi-mode microplate reader. The percent survival of cells treated by each concentration of nanoparticles was calculated using the following equation:
[formula] where Ad is the absorbance of cells treated with nanoparticles, Am is the absorbance of medium alone and Ac is the absorbance of cells without treatment.
Assay [2] deals with human NSCLC A549 cells. Description: MTS cytotoxicity of neutron-activated nanoparticles and free Pt drugs (Example 2). The assay is classed as cell-based. The settings on record: 24 h.
Description: The radioactivity of nanoparticles prior to administration to cells was determined using a 2470 WIZARD 2 automatic gamma counter. Studies involving human NSCLC A549 cells were carried out under standard conditions in a humidified, 37° C., 5% CO2 atmosphere incubator. The culture medium used for A549 cells was minimum essential medium to which had been added 10% fetal calf serum, 100 μg/mL streptomycin, 100 IU/mL penicillin and 2.0 mM L-glutamine. Cells were seeded at 5×10^4 cells/ml (100 μL/well) in 96-well plates and allowed to grow for 24 h after which time the medium was removed and replaced with medium and drug. After an exposure time of 24 h, the medium with drug was removed and replaced with 100 μL of fresh medium. To each well, 20 μL of CellTiter 96® AQueous One Solution Cell Proliferation Assay (MTS) solution was added. After 2 h incubation with the MTS solution, the absorbance was read at 490 nm using a Synergy™ H1 hybrid multi-mode microplate reader. The percent survival of cells treated by each concentration of drug was calculated using the following equation:
[formula] where Ad is the absorbance of cells treated with drug, Am is the absorbance of medium alone and Ac is the absorbance of cells without treatment. The % survival data was fit to exponential regression and IC50 values calculated.

For the compound `N.N.O=C([O-])C1(C(=O)[O-])CCC1.[Pt+2]` [Free carboplatin, carboplatin], the synergy with radiation result in assay [1] is “did not act synergistically with radiation”.

Consider `N.N.[Cl][Pt][Cl]` [cis, cisplatin], for which the “synergy with the radioactive Ho” value in assay [2] was “act synergistically”.
